Measurements: US20250346585A1 (Alexion Pharmaceuticals, Inc., priority 2022, published 2025)

Molecular target: Human complement C1s enzyme (Homo sapiens (Human), UniProt P09871)
Experiment: Human C1s enzyme assay
Assay type: biochemical
Conditions: Human C1s enzyme assay of Example 3; read-out: IC50 (Stars)
Procedure, shortened: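 IC50 derived by nonlinear regression of rate versus concentration, with rate taken from A405 kinetics (30 s intervals, 30 min) after adding 100 μM each Z-L-Lys-SBzl and DTNB. C1s from human serum, 1.16 nM, exposed to compound for 5 min at RT beforehand; buffer 50 mM Tris, 1 M NaCl, pH 7.5.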

Chain of Human complement C1s enzyme (P09871 438-688 limits assumed): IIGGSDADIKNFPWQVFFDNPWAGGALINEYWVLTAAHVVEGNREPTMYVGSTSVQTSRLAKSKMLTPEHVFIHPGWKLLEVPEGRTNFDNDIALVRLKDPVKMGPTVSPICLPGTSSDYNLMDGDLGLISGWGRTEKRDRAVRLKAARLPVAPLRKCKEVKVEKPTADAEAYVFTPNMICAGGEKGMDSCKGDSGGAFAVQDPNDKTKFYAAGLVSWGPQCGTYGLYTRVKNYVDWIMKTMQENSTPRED
Chain of Human complement C1s enzyme (P09871 16-437 partner limits assumed): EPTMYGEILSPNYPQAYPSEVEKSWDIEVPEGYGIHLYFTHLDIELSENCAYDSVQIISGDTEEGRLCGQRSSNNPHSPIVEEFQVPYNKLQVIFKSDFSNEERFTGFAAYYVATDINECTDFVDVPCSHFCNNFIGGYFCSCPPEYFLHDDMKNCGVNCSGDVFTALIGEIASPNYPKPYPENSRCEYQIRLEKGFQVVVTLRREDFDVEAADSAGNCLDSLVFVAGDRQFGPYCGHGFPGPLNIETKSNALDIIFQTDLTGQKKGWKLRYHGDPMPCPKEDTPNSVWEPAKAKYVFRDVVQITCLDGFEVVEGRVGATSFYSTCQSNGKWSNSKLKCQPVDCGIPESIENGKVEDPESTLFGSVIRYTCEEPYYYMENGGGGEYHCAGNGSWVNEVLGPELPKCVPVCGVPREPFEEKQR

SMILES | IC50 [nM]
CC1c2ccccc2-c2cc(C(=O)NCC(=O)N3CC4(C[C@H]3C(=O)NCc3cc(C(=N)N)cs3)OCCO4)ccc21 (stereo partly drawn) [Compound 110, (8S)—N-((4-carbamimidoylthiophen-2-yl)methyl)-7-((9-methyl-9H-fluorene-3-carbonyl)glycyl)-1,4-dioxa-7-azaspiro[4.4]nonane-8-carboxamide] | < 100
C[C@@H](NC(=O)[C@@H]1CC2(CN1C(=O)CNC(=O)c1ccc3cc4ccccc4cc3c1)OCCO2)c1cc(C(=N)N)cs1 [Compound 78, (S)-7-((anthracene-2-carbonyl)glycyl)-N—((R)-1-(4-carbamimidoylthiophen-2-yl)ethyl)-1,4-dioxa-7-azaspiro[4.4]nonane-8-carboxamide] | < 100
N=C(N)c1cc(CNC(=O)[C@@H]2CC3(CN2C(=O)CNC(=O)c2ccc(-c4ccccc4)cc2)OCCO3)cs1 [Compound 147, (S)-7-(([1,1′-biphenyl]-4-carbonyl)glycyl)-N-((5-carbamimidoylthiophen-3-yl)methyl)-1,4-dioxa-7-azaspiro[4.4]nonane-8-carboxamide] | < 100
Cc1cccc2c1-c1cc(C(=O)NCC(=O)N3CC4(C[C@H]3C(=O)N[C@H](C)c3cc(C(=N)N)cs3)OCCO4)ccc1C2(F)F [Compound 177, (S)—N—((R)-1-(4-carbamimidoylthiophen-2-yl)ethyl)-7-((9,9-difluoro-5-methyl-9H-fluorene-3-carbonyl)glycyl)-1,4-dioxa-7-azaspiro[4.4]nonane-8-carboxamide] | < 100
Cc1ccccc1[C@H]1C[C@@H](C(=O)N[C@H](C)c2cc(C(=N)N)cs2)N(C(=O)CNC(=O)c2ccc(Oc3ccc(F)cc3)cc2)C1 [Compound 59, (2S,4R)—N—((R)-1-(4-carbamimidoylthiophen-2-yl)ethyl)-1-((4-(4-fluorophenoxy)benzoyl)glycyl)-4-(o-tolyl)pyrrolidine-2-carboxamide] | < 100
C[C@@H](NC(=O)[C@@H]1C[C@]2(C)C[C@@H]2N1C(=O)CNC(=O)c1ccc2c(c1)-c1ccccc1C2(F)F)c1ccc(C(=N)N)s1 [Compound 29, (1S,3S,5S)—N—((R)-1-(5-carbamimidoylthiophen-2-yl)ethyl)-2-((9,9-difluoro-9H-fluorene-3-carbonyl)glycyl)-5-methyl-2-azabicyclo[3.1.0]hexane-3-carboxamide] | < 100
Cc1ccc(Oc2ccc(C(=O)NCC(=O)N3[C@H]4C[C@@]4(C)C[C@H]3C(=O)N[C@H](C)c3cc(C(=N)N)cs3)cc2C)cc1 [Compound 25, (1S,3S,5S)—N—((R)-1-(4-carbamimidoylthiophen-2-yl)ethyl)-5-methyl-2-((3-methyl-4-(p-tolyloxy)benzoyl)glycyl)-2-azabicyclo[3.1.]hexane-3-carboxamide] | < 100
C[C@@H](NC(=O)[C@@H]1CC2(CN1C(=O)CNC(=O)c1ccc3c(c1)-c1ccccc1C3(F)F)OCCO2)c1cc(-c2nnc[nH]2)cs1 [Compound 130, (S)—N—((R)-1-(4-(4H-1,2,4-triazol-3-yl)thiophen-2-yl)ethyl)-7-((9,9-difluoro-9H-fluorene-3-carbonyl)glycyl)-1,4-dioxa-7-azaspiro[4.4]nonane-8-carboxamide] | 100 to 1000
C[C@@H](NC(=O)[C@@H]1CC2(CN1C(=O)CNC(=O)c1ccc3c(c1)-c1ccccc1C3(F)F)OCCO2)c1cc(-c2nccs2)cs1 [Compound 114, (S)-7-((9,9-difluoro-9H-fluorene-3-carbonyl)glycyl)-N—((R)-1-(4-(thiazol-2-yl)thiophen-2-yl)ethyl)-1,4-dioxa-7-azaspiro[4.4]nonane-8-carboxamide] | > 1000

Same assay, conditions: Human complement C1s enzyme 1.16 nM, substrate Z-L-Lys-SBzl 100 μM, assay of Example 3; read-out: IC50 (Stars)

SMILES | IC50 [nM]
CC1c2ccccc2-c2ccc(C(=O)NCC(=O)N3C[C@@](F)(CF)C[C@H]3C(=O)N[C@H](C)c3cc(C(=N)N)cs3)cc21 (stereo partly drawn) [Compound 371, (2S,4R)—N—((R)-1-(4-carbamimidoylthiophen-2-yl)ethyl)-4-fluoro-4-(fluoromethyl)-1-((9-methyl-9H-fluorene-2-carbonyl)glycyl)pyrrolidine-2-carboxamide] | < 100
CC(C)S(=O)(=O)[C@@H]1C[C@@H](C(=O)N[C@H](C)c2cc(C(=N)N)cs2)N(C(=O)CNC(=O)c2ccc3c(c2)-c2ccccc2C3(F)F)C1 [Compound 280, (2S,4R)—N—((R)-1-(4-carbamimidoylthiophen-2-yl)ethyl)-1-((9,9-difluoro-9H-fluorene-3-carbonyl)glycyl)-4-(isopropylsulfonyl)pyrrolidine-2-carboxamide] | < 100
C[C@@H](NC(=O)[C@@H]1C[C@]2(COCCN(C)C)C[C@@H]2N1C(=O)CNC(=O)c1ccc2c(c1)-c1ccccc1C2(F)F)c1cc(C(=N)N)cs1 [Compound 367, (1S,3S,5R)—N—((R)-1-(4-carbamimidoylthiophen-2-yl)ethyl)-2-((9,9-difluoro-9H-fluorene-3-carbonyl)glycyl)-5-((2-(dimethylamino)ethoxy)methyl)-2-azabicyclo[3.1.0]hexane-3-carboxamide] | < 100
C[C@@H](NC(=O)[C@@H]1CC2(CN1C(=O)CNC(=O)c1ccc3c(c1)Oc1ccccc1S3)OCCO2)c1cc(C(=N)N)cs1 [Compound 271, (S)—N—((R)-1-(4-carbamimidoylthiophen-2-yl)ethyl)-7-((phenoxathiine-3-carbonyl)glycyl)-1,4-dioxa-7-azaspiro[4.4]nonane-8-carboxamide] | < 100
CC(C)S(=O)(=O)c1ccc(-c2ccc(C(=O)NCC(=O)N3CC4(C[C@H]3C(=O)NCc3cc(C(=N)N)cs3)OCCO4)cc2)cc1 [Compound 216, (S)—N-((4-carbamimidoylthiophen-2-yl)methyl)-7-((4′-(isopropylsulfonyl)-[1,1′-biphenyl]-4-carbonyl)glycyl)-1,4-dioxa-7-azaspiro[4.4]nonane-8-carboxamide] | < 100
N=C(N)c1csc(CNC(=O)[C@@H]2CC3(CN2C(=O)CN2Cc4cc(-c5ccccc5)ccc4C2=O)OCCO3)c1 [Compound 231, (S)—N-((4-carbamimidoylthiophen-2-yl)methyl)-7-(2-(1-oxo-5-phenylisoindolin-2-yl)acetyl)-1,4-dioxa-7-azaspiro[4.4]nonane-8-carboxamide] | < 100
N=C(N)c1csc(CNC(=O)[C@@H]2CC3(CN2C(=O)CN2Cc4cc(-c5ccc(F)cc5F)ccc4C2=O)OCCO3)c1 [Compound 228, (S)—N-((4-carbamimidoylthiophen-2-yl)methyl)-7-(2-(5-(2,4-difluorophenyl)-1-oxoisoindolin-2-yl)acetyl)-1,4-dioxa-7-azaspiro[4.4]nonane-8-carboxamide] | < 100
C[C@@H](NC(=O)[C@@H]1C[C@@H](c2ccccc2)CN1C(=O)CNC(=O)c1ccc2oc3ccccc3c2c1)c1cc(C(=N)N)cs1 [Compound 218, (2S,4S)—N—((R)-1-(4-carbamimidoylthiophen-2-yl)ethyl)-1-((dibenzo[b,d]furan-2-carbonyl)glycyl)-4-phenylpyrrolidine-2-carboxamide] | < 100
N=C(N)c1csc(CNC(=O)[C@@H]2CC3(CN2C(=O)CN2CCc4cc(-c5ccccc5)ccc4C2=O)OCCO3)c1 [Compound 256, (S)—N-((4-carbamimidoylthiophen-2-yl)methyl)-7-(2-(1-oxo-6-phenyl-3,4-dihydroisoquinolin-2(1H)-yl)acetyl)-1,4-dioxa-7-azaspiro[4.4]nonane-8-carboxamide] | < 100
C[C@@H](NC(=O)[C@@H]1C[C@]2(CN)C[C@@H]2N1C(=O)CNC(=O)c1ccc2c(c1)-c1ccccc1C2(F)F)c1cc(C(=N)N)cs1 [Compound 303, (1S,3S,5S)-5-(aminomethyl)-N—((R)-1-(4-carbamimidoylthiophen-2-yl)ethyl)-2-((9,9-difluoro-9H-fluorene-3-carbonyl)glycyl)-2-azabicyclo[3.1.0]hexane-3-carboxamide] | < 100
C[C@@H](NC(=O)[C@@H]1C[C@@H](S(C)(=O)=O)CN1C(=O)CNC(=O)c1ccc2c(c1)C(F)(F)c1ccccc1-2)c1cc(C(=N)N)cs1 [Compound 265, (2S,4R)—N—((R)-1-(4-carbamimidoylthiophen-2-yl)ethyl)-1-((9,9-difluoro-9H-fluorene-2-carbonyl)glycyl)-4-(methylsulfonyl)pyrrolidine-2-carboxamide] | < 100
N=C(N)c1csc(CNC(=O)[C@@H]2CC3(CN2C(=O)CN2Cc4ccc(-c5ccc(F)cc5F)cc4C2)OCCO3)c1 [Compound 287, (S)—N-((4-carbamimidoylthiophen-2-yl)methyl)-7-(2-(5-(2,4-difluorophenyl)isoindolin-2-yl)acetyl)-1,4-dioxa-7-azaspiro[4.4]nonane-8-carboxamide] | < 100

Same assay, conditions: Human complement C1s enzyme 1.16 nM, substrate Z-L-Lys-SBzl; assay of Example 3; read-out: IC50 (Stars)

SMILES | IC50 [nM]
CC1c2ccccc2-c2cc(C(=O)NCC(=O)N3C[C@H](OC(F)F)C[C@H]3C(=O)N[C@H](C)c3cc(C(=N)N)cs3)ccc21 (stereo partly drawn) [Compound 421, (2S,4R)-N-((R)-1-(4-carbamimidoylthiophen-2-yl)ethyl)-4-(difluoromethoxy)-1-((9-methyl-9H-fluorene-3-carbonyl)glycyl) pyrrolidine-2-carboxamide] | < 100
COC[C@@]1(F)C[C@@H](C(=O)N[C@H](CO)c2cc(C(=N)N)cs2)N(C(=O)CNC(=O)c2ccc3c(c2)-c2ccccc2C3(C)C)C1 [Compound 409, (2S,4R)—N—((R)-1-(4-carbamimidoylthiophen-2-yl)-2-hydroxyethyl)-1-((9,9-dimethyl-9H-fluorene-3-carbonyl)glycyl)-4-fluoro-4-(methoxymethyl)pyrrolidine-2-carboxamide] | < 100
C[C@@H](NC(=O)[C@@H]1C[C@]2(Cc3ncno3)C[C@@H]2N1C(=O)CNC(=O)c1ccc2c(c1)-c1ccccc1C2(F)F)c1cc(C(=N)N)cs1 [Compound 420, (1S,3S,5S)-5-((1,2,4-oxadiazol-5-yl)methyl)-N—((R)-1-(4-carbamimidoylthiophen-2-yl)ethyl)-2-((9,9-difluoro-9H-fluorene-3-carbonyl)glycyl)-2-azabicyclo[3.1.0]hexane-3-carboxamide] | < 100
